Data reported in ChEMBL document CHEMBL6182876, “Design, synthesis and preliminary structure-activity relationship of 2-iminothiazolidine-4-one derivatives against Schistosoma japonicum in vitro and in vivo” (Eur J Med Chem, 2025).
Calls of active or inactive are those of the source. The calls are words filed in the database; no cut-off is given here.

How the values were obtained:
Schistosoma japonicum [1] = assay: Anti-schistosomal activity against adult Schistosoma japonicum assessed as worm mortality at 100 uM measured at 24 hrs relative to control; type: functional
Schistosoma japonicum [2] = assay: Anti-schistosomal activity against adult Schistosoma japonicum assessed as worm mortality at 100 uM measured at 4 hrs relative to control; type: functional
Schistosoma japonicum [3] = assay: Anti-schistosomal activity against adult Schistosoma japonicum measured at 72 hrs; type: functional, organism-based
Schistosoma japonicum [4] = assay: Anti-schistosomal activity against adult Schistosoma japonicum assessed as worm mortality at 100 uM measured at 12 hrs relative to control; type: functional
Schistosoma japonicum [5] = assay: Anti-schistosomal activity against adult Schistosoma japonicum assessed as worm mortality at 100 uM measured at 72 hrs relative to control; type: functional
[6] = Toxicity in ICR mouse infected with Schistosoma japonicum assessed as serum BUN level at 25 mg/kg, ip administered for 7 days; type: organism-based; settings: in vivo, 168 h, time 7 day
Schistosoma japonicum [7] = assay: Anti-schistosomal activity against adult Schistosoma japonicum assessed as worm mortality at 100 uM measured at 8 hrs relative to control; type: functional
Schistosoma japonicum [8] = assay: Anti-schistosomal activity against adult Schistosoma japonicum assessed as worm mortality at 100 uM measured at 48 hrs relative to control; type: functional
Schistosoma japonicum [9] = assay: Anti-schistosomal activity against adult Schistosoma japonicum infected in ICR mouse assessed as number of worms at 25 mg/kg, ip administered for 7 days; type: functional; settings: time 7 day
Schistosoma japonicum [10] = assay: Anti-schistosomal activity against juvenile Schistosoma japonicum infected in ICR mouse assessed as reduction in worm burden at 25 mg/kg, ip administered for 7 days; type: functional; design: scale not given: the % may be the effect or the level left; settings: time 7 day
Schistosoma japonicum [11] = assay: Anti-schistosomal activity against juvenile Schistosoma japonicum infected in ICR mouse assessed as number of worms at 25 mg/kg, ip administered for 7 days; type: functional; settings: time 7 day
Schistosoma japonicum [12] = assay: Anti-schistosomal activity against adult Schistosoma japonicum infected in ICR mouse assessed as reduction in worm burden at 25 mg/kg, ip administered for 7 days; type: functional; design: scale not given: the % may be the effect or the level left; settings: time 7 day
[13] = Acute toxicity in ICR mouse assessed as BUN level at 1144 mg/kg, po administered for 7 days; type: organism-based; settings: in vivo, 168 h, time 7 day
Schistosoma japonicum [14] = assay: Anti-schistosomal activity against male adult Schistosoma japonicum assessed as surface destabilization at 25 uM measured for 72 hrs by SEM analysis; type: functional, organism-based
[15] = Acute toxicity in ICR mouse assessed as AST level at 1144 mg/kg, po administered for 7 days; type: organism-based; settings: in vivo, 168 h, time 7 day
[16] = Acute toxicity in ICR mouse assessed as TBIL level at 1144 mg/kg, po administered for 7 days; type: organism-based; settings: in vivo, 168 h, time 7 day
Schistosoma japonicum [17] = assay: Anti-schistosomal activity against male adult Schistosoma japonicum assessed as complete loss of sucker-associated muscular architecture at 25 uM measured for 72 hrs by SEM analysis; type: functional, organism-based
Schistosoma japonicum [18] = assay: Anti-schistosomal activity against male adult Schistosoma japonicum assessed as appearance of parallel wrinkles at 25 uM measured for 72 hrs by SEM analysis; type: functional, organism-based
Schistosoma japonicum [19] = assay: Anti-schistosomal activity against juvenile Schistosoma japonicum infected in ICR mouse assessed as somatic degeneration at 25 mg/kg, ip administered for 7 days; type: functional, organism-based; settings: time 7.0 day
Schistosoma japonicum [20] = assay: Anti-schistosomal activity against male adult Schistosoma japonicum assessed as appearance of sensory papillae at 25 uM measured for 72 hrs by SEM analysis; type: functional, organism-based
[21] = Acute toxicity in ICR mouse assessed as ALT level at 1144 mg/kg, po administered for 7 days; type: organism-based; settings: in vivo, 168 h, time 7 day
Schistosoma japonicum [22] = assay: Anti-schistosomal activity against female adult Schistosoma japonicum assessed as loss of tegumental architecture at 25 uM measured after 72 hrs by SEM analysis; type: functional, organism-based
Schistosoma japonicum [23] = assay: Anti-schistosomal activity against male adult Schistosoma japonicum assessed as appearance of degradation of subtegumental matrix at 25 uM measured for 72 hrs by SEM analysis; type: functional, organism-based
Schistosoma japonicum [24] = assay: Anti-schistosomal activity against male adult Schistosoma japonicum assessed as appearance of intact tegument surface at 25 uM measured for 72 hrs by SEM analysis; type: functional, organism-based
Schistosoma japonicum [25] = assay: Anti-schistosomal activity against male adult Schistosoma japonicum assessed as loss of tegumental architecture at 25 uM measured after 72 hrs by SEM analysis; type: functional, organism-based

Compound | mortality at 100 µM (Schistosoma japonicum [1]) [%] | mortality at 100 µM (Schistosoma japonicum [2]) [%] | IC50 (Schistosoma japonicum [3]) [µM] | mortality at 100 µM (Schistosoma japonicum [4]) [%] | mortality at 100 µM (Schistosoma japonicum [5]) [%] | mortality at 100 µM (Schistosoma japonicum [7]) [%] | mortality at 100 µM (Schistosoma japonicum [8]) [%] | also measured
CCOC(=O)/C=C1\S/C(=N\c2ccccc2Cl)N(CCCN2CCN(C)CC2)C1=O | 100 | 10 | 30.4 | 100 | 100 | 40 | 100 | Activity [6]: 7.9 mM; Activity (Schistosoma japonicum [9]): 37%; Activity (Schistosoma japonicum [10]): 30%; Activity (Schistosoma japonicum [11]): 30%; Activity (Schistosoma japonicum [12]): 26%
CCOC(=O)/C=C1\S/C(=N\c2ccccc2)N(CCN(C)C)C1=O | 0 | 0 | > 100 | 0 | 10 | 0 | 0 | 
CCOC(=O)/C=C1\S/C(=N\c2ccc(Cl)c(Cl)c2)N(CCCN2CCN(C)CC2)C1=O | 100 | 0 | 39.3 | 100 | 100 | 40 | 100 | 
CCOC(=O)/C=C1\S/C(=N\c2ccccc2)N(CCCN(C)C)C1=O | 10 | 0 | 97.7 | 0 | 100 | 0 | 40 | 
O=C(C1CCCCC1)N1CC(=O)N2CCc3ccccc3C2C1 (stereo not given) [PRAZIQUANTEL] | 100 | 100 | 43.8 | 100 | 100 | 100 | 100 | Activity [13]: 7.93 mM; Activity (Schistosoma japonicum [14]): Active; Activity [15]: 57 U/L; Activity [16]: 3.76 µM; Activity (Schistosoma japonicum [17]): Active; Activity (Schistosoma japonicum [18]): Active; Activity (Schistosoma japonicum [19]): Active; Activity [6]: 22.1 mM; Activity (Schistosoma japonicum [20]): Active; Activity [21]: 136 U/L; Activity (Schistosoma japonicum [22]): Active; Activity (Schistosoma japonicum [23]): Active; Activity (Schistosoma japonicum [24]): Active; Activity (Schistosoma japonicum [9]): 7%; Activity (Schistosoma japonicum [10]): 49%; Activity (Schistosoma japonicum [25]): Active; Activity (Schistosoma japonicum [11]): 22%; Activity (Schistosoma japonicum [12]): 86%
CCOC(=O)/C=C1\S/C(=N\c2ccccc2)N(CCN2CCCCC2)C1=O | 0 | 0 | > 100 | 0 | 50 | 0 | 10 | 
CCOC(=O)/C=C1\S/C(=N\c2cccc(Br)c2)N(CCCN2CCN(C)CC2)C1=O | 100 | 0 | 35.1 | 80 | 100 | 30 | 100 | 
CCOC(=O)/C=C1\S/C(=N\c2ccccc2Br)N(CCCN2CCN(C)CC2)C1=O | 100 | 0 | 30.9 | 60 | 100 | 20 | 100 | 
CCOC(=O)/C=C1\S/C(=N\c2ccccc2)N(CCN2CCOCC2)C1=O | 0 | 0 | 93.1 | 0 | 60 | 0 | 40 | 
CCOC(=O)/C=C1\S/C(=N\c2cc(C(F)(F)F)cc(C(F)(F)F)c2)N(CCCN2CCN(C)CC2)C1=O | 100 | 0 | 36.4 | 100 | 100 | 40 | 100 | 
CCOC(=O)/C=C1\S/C(=N\C)N(CCCN2CCN(C)CC2)C1=O | 0 | 0 | > 100 | 0 | 0 | 0 | 0 | 
CCOC(=O)/C=C1\S/C(=N\c2ccc(Br)cc2)N(CCCN2CCN(C)CC2)C1=O | 100 | 0 | 35.4 | 60 | 100 | 30 | 100 | 
CCOC(=O)/C=C1\S/C(=N\c2ccc(Cl)cc2)N(CCCN2CCN(C)CC2)C1=O | 100 | 0 | 41.8 | 80 | 100 | 40 | 100 | 
CCOC(=O)/C=C1\S/C(=N\c2ccccc2)N(Cc2ccccc2)C1=O | 0 | 0 | > 100 | 0 | 0 | 0 | 0 | 
CCOC(=O)/C=C1\S/C(=N\c2ccccc2)N(CCCN2CCOCC2)C1=O | 0 | 0 | 91.3 | 0 | 100 | 0 | 0 | 
CCOC(=O)/C=C1\S/C(=N\c2ccc(F)cc2)N(CCCN2CCN(C)CC2)C1=O | 30 | 0 | 42.8 | 0 | 100 | 0 | 80 | 
